“Also recorded” adds a separate entry of the source.
System: LDLR null mice
Test: Plasma hydroxyeicosatetraenoic acid (HETE) levels in LDLR null mice fed Western diet for two weeks
Assay type: in vivo, mouse
Settings: female LDLR null mice age 5-8 months, n=20 per group, WD two weeks, Tg6F 0.06% of diet, Ezetimibe 10 mg/kg/day
Method: The plasma from the mice in FIG. 1 was analyzed for 5-HETE as described (see, e.g., Navab et al. (2012) J. Lipid Res., 53: 437-445).
Female LDLR null mice age 5-8 months (n=20 per group) were fed standard mouse chow (Chow) or a Western diet high in cholesterol and fat (WD) or were fed WD+0.06% by weight of a freeze-dried concentrate of transgenic tomatoes expressing the apoA-I mimetic peptide 6F, which was prepared as previously described (see, e.g., Chattopadhyay et al. (2015) Pharma. Res. Per. 3: e00154; Chattopadhyay et al. (2016) J. Lipid Res. 57: 832-847; PCT Pub. Nos: WO 2013/148214 (PCT/US2013/031037), WO 2015/175968 (PCT/US2015/031134)) (Tg6F), or the mice were fed WD with Ezetimibe added to give a daily dose of 10 mg/kg body weight/day (WD+Ezetimibe), or the mice were fed WD with Tg6F added at 0.06% by weight plus Ezetimibe (each added separately to the diet) to give a daily dose of Ezetimibe of 10 mg/kg body weight; the Tg6F and Ezetimibe were mixed into WD as described previously (Chattopadhyay et al. (2016) J. Lipid. Res. 57: 832-847) (Combined Formulation), or the mice were fed WD to which was added ezetimibe-associated transgenic 6F peptide (Ez-tg6F) at 0.06% Tg6F by weight containing sufficient Ezetimibe to give a daily dose of 10 mg/kg body weight/day that was prepared as described herein. Specifically, the ezetimibe-associated Tg6F peptide (Ez-Tg6F) was made by adding the ezetimibe directly to a solution of ethyl acetate 5% acetic acid that had been incubated overnight at room temperature with freeze-dried tomato powder obtained from transgenic tomatoes expressing the 6F peptide, and which had been removed to a separate vessel as described previously (see, e.g., Chattopadhyay et al. (2015) Pharma. Res. Per. 3: e00154; Chattopadhyay et al. (2016) J. Lipid. Res. 57: 832-847) prior to addition of the ezetimibe. […] After feeding the diets for two weeks, the mice were bled and total plasma cholesterol levels were determined as described (Id.). […]

Compound: O=C1[C@H](CC[C@H](O)c2ccc(F)cc2)[C@@H](c2ccc(O)cc2)N1c1ccc(F)cc1 [Ezetimibe, (3R,4S)-1-(4-fluorophenyl)-3-[(3S)-3-(4-fluorophenyl)-3-hydroxypropyl]-4-(4-hydroxyphenyl)azetidin-2-one]
- plasma 5-HETE levels (FIG. 7-8 / FIG. 17 G-H): equally effective; also recorded: significantly decreased plasma levels of 5-HETE
- plasma 12-HETE levels (FIG. 9-10 / FIG. 17 I-J): without effect; also recorded: failed to significantly decrease plasma 12-HETE and 15-HETE levels; also recorded: did not significantly alter plasma 12-HETE or 15-HETE levels
- plasma 15-HETE levels (FIG. 11-12 / FIG. 17 K-L): without effect; also recorded: failed to significantly decrease plasma 12-HETE and 15-HETE levels; also recorded: did not significantly alter plasma 12-HETE or 15-HETE levels

From patent US10905736B2, “Ezetimibe-associated ApoA-I mimetic peptides showing enhanced synergism” (The Regents of the University of California, priority 2016, dated 2021)
